Columns and labels:
[1] = target: T1, CDK9/CycT1 (Homo sapiens, UniProt P50750); assay: CDK9/CycT1 high ATP kinase assay (TR-FRET, 2 mM ATP); assay type: biochemical; details: 2 mM ATP (high ATP); median; read-out: CDK9/CyclinT1, 2 mM ATP (high ATP), IC50 (median)
T1 construct: Recombinant full-length His-tagged human CDK9 and CycT1; purchased Life Technologies PV4131; host or cells: insect cells
Procedure, shortened: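 Full-length His-tagged human CDK9/CycT1 (insect cell, ~0.5 μg/mL) preincubated 15 min at 22 °C with compound in Tris pH 8.0, MgCl2, DTT buffer before reaction with biotinylated peptide substrate at high ATP (2 mM).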

[2] = target: CDK12/CycK (Homo sapiens, UniProt Q9NYV4); assay: CDK12/CycK high ATP kinase assay (TR-FRET, 2 mM ATP); assay type: biochemical; details: 2 mM ATP (high ATP); median; read-out: CDK12/CyclinK, 2 mM ATP (high ATP), IC50-[mol/l] (median)
Sequence of CDK12/CycK (Q9NYV4 with tags, fused parts or gaps): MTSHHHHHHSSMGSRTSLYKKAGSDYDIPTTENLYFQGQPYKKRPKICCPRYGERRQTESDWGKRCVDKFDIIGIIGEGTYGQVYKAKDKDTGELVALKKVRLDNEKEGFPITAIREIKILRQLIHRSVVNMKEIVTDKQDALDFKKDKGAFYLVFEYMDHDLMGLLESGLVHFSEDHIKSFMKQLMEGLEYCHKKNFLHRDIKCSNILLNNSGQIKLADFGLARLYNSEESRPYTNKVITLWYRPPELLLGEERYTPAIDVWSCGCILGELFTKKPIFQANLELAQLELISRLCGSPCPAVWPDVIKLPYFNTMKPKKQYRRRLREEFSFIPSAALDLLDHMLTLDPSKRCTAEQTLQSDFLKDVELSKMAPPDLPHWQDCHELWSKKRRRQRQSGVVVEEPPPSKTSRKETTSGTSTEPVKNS
Sequence of CDK12/CycK (O75909 1-300 partner limits assumed): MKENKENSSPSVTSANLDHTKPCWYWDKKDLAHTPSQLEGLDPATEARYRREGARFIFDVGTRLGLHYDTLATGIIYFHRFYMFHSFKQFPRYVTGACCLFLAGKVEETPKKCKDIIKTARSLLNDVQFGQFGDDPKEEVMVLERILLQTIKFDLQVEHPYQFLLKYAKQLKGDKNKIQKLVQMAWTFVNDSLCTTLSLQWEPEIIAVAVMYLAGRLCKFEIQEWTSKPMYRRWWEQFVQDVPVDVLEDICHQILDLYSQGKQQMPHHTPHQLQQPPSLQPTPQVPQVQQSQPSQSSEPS
Procedure, shortened: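 Read-out is TR-FRET (Eu-anti-rabbit IgG, anti-phospho-c-Myc Ser62 antibody, streptavidin-XL665) after EDTA stop. Reaction ran 60 min at 22 °C using 1 µM biotin-peptide and high ATP (2 mM) with roughly 0.75 nM recombinant CDK12/CycK, after 15 min compound pre-binding; normalised emission ratios yield IC50.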

T1 sequence (P50750 whole entry): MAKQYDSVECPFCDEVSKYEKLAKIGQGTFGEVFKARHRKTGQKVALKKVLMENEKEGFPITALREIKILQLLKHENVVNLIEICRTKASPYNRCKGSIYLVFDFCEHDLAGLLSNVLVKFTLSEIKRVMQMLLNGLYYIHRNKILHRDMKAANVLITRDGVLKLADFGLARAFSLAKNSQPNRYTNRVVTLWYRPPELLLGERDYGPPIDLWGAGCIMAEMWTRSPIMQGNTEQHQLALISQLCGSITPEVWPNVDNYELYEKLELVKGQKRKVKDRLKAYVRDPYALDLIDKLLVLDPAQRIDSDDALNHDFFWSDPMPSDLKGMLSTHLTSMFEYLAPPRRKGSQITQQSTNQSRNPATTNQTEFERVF
T1 sequence (O60563 whole entry partner): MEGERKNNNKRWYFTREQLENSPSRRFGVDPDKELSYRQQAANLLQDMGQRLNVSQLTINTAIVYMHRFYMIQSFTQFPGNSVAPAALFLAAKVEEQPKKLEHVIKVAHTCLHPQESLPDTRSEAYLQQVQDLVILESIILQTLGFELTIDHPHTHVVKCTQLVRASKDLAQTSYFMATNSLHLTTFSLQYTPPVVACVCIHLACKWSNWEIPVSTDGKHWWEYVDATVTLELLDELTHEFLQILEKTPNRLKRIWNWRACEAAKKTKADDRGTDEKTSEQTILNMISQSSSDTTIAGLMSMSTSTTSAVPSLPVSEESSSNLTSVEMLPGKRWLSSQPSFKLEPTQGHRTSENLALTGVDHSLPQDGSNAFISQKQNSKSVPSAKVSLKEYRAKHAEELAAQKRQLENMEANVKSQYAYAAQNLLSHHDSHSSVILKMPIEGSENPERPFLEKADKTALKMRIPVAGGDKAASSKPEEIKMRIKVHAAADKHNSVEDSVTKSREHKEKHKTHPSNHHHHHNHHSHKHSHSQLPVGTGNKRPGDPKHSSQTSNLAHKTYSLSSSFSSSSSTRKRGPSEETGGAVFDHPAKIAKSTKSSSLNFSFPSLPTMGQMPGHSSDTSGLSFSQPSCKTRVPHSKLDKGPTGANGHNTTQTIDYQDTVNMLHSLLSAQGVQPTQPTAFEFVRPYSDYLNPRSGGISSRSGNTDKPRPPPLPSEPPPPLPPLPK

SMILES	IC50 [1] [µM]	IC50 [2] [µM]
CN1C[C@H]2C[C@@H]1CN2c1nc(NCc2nc3ccccc3[nH]2)n2ncc(Br)c2n1 [Example 218, N-[(1H-benzimidazol-2-yl)methyl]-8-bromo-2-[(1R,4R)-5-methyl-2,5-diazabicyclo[2.2.1]heptan-2-yl]pyrazolo[1,5-a][1,3,5]triazin-4-amine]	> 20	> 20
CC1CN(c2nc(NCc3nc4ccccc4[nH]3)n3ncc(C(C)C)c3n2)CCO1 (racemic) [Example 11, (rac)-N-[(1H-benzimidazol-2-yl)methyl]-2-[2-methylmorpholin-4-yl]-8-(propan-2-yl)pyrazolo[1,5-a][1,3,5]triazin-4-amine]	> 20	3.16
CN1CCN(c2nc(NCc3nc4ccccc4[nH]3)n3ncc(-c4ccncc4)c3n2)CC1 [Example 242, N-[(1H-benzimidazol-2-yl)methyl]-2-(4-methylpiperazin-1-yl)-8-(pyridin-4-yl)pyrazolo[1,5-a][1,3,5]triazin-4-amine]	> 20	> 20
Cc1ccc2[nH]c(CNc3nc(N4C[C@H]5C[C@@H]4CO5)nc4c(Br)cnn34)nc2c1 [Example 192, 8-bromo-N-[(5-methyl-1H-benzimidazol-2-yl)methyl]-2-[(1R,4R)-2-oxa-5-azabicyclo[2.2.1]heptan-5-yl]pyrazolo[1,5-a][1,3,5]triazin-4-amine]	> 20	8.5
OC[C@@H]1CCCCN1c1nc(NCc2nc3c(F)c(F)ccc3[nH]2)n2ncc(C3CC3)c2n1 [Example 184, [(2S)-1-(8-cyclopropyl-4-{[(4,5-difluoro-1H-benzimidazol-2-yl)methyl]amino}pyrazolo[1,5-a][1,3,5]triazin-2-yl)piperidin-2-yl]methanol]	1.64	0.0132
Cc1cc(-c2cnn3c(NCc4nc5ccccc5[nH]4)nc(N4CCN(C)CC4)nc23)ccn1 [Example 243, N-[(1H-benzimidazol-2-yl)methyl]-2-(4-methylpiperazin-1-yl)-8-(2-methylpyridin-4-yl)pyrazolo[1,5-a][1,3,5]triazin-4-amine]	> 20	> 20
Cc1ccc2[nH]c(CNc3nc(N4C[C@@H](C)N[C@@H](C)C4)nc4c(Br)cnn34)nc2c1 [Example 209, 8-bromo-2-[(3R,5S)-3,5-dimethylpiperazin-1-yl]-N-[(5-methyl-1H-benzimidazol-2-yl)methyl]pyrazolo[1,5-a][1,3,5]triazin-4-amine]	> 20	6.8
CN(C)[C@@H]1CCN(c2nc(NCc3nc4ccccc4[nH]3)n3ncc(Br)c3n2)C1 [Example 178, N-[(1H-benzimidazol-2-yl)methyl]-8-bromo-2-[(3R)-3-(dimethylamino)pyrrolidin-1-yl]pyrazolo[1,5-a][1,3,5]triazin-4-amine]	> 20	> 20

Continued, values first:

IC50 [1] [µM]	IC50 [2] [µM]	SMILES
> 20	> 20	CN(CCN1CCCC1)c1nc(NCc2nc3ccccc3[nH]2)n2ncc(Br)c2n1 [Example 239, N4-(1H-benzimidazol-2-ylmethyl)-8-bromo-N2-methyl-N2-(2-pyrrolidin-1-ylethyl)pyrazolo[1,5-a][1,3,5]triazine-2,4-diamine]
> 20	> 19.6	Fc1ccc2[nH]c(CNc3nc(N4C[C@@H]5C[C@H]4CO5)nc4c(C5CC5)cnn34)nc2c1 [Example 185, 8-cyclopropyl-N-[(5-fluoro-1H-benzimidazol-2-yl)methyl]-2-[(1S,4S)-2-oxa-5-azabicyclo[2.2.1]heptan-5-yl]pyrazolo[1,5-a][1,3,5]triazin-4-amine]
> 20	7.12	O=C1CN(c2nc(NCc3nc4ccccc4[nH]3)n3ncc(Br)c3n2)CCN1 [Example 167, 4-(4-{[(1H-benzimidazol-2-yl)methyl]amino}-8-bromopyrazolo[1,5-a][1,3,5]triazin-2-yl)piperazin-2-one]
> 20	1.05	COc1cccc2[nH]c(CNc3nc(N4CCOCC4)nc4c(C5CC5)cnn34)nc12 [Example 213, 8-cyclopropyl-N-[(4-methoxy-1H-benzimidazol-2-yl)methyl]-2-morpholino-pyrazolo[1,5-a][1,3,5]triazin-4-amine]
> 20	8.8	Cc1ccc2[nH]c(CNc3nc(N4C[C@@H]5CCCN[C@@H]5C4)nc4c(Br)cnn34)nc2c1 [Example 203, 8-bromo-N-[(5-methyl-1H-benzimidazol-2-yl)methyl]-2-[(4aS, 7aS)-octahydro-6H-pyrrolo[3,4-b]pyridin-6-yl]pyrazolo[1,5-a][1,3,5]triazin-4-amine]
> 20	9.53	COc1cccc2[nH]c(CNc3nc(N4CCN(C)CC4)nc4c(C5CC5)cnn34)nc12 [Example 197, 8-cyclopropyl-N-[(4-methoxy-1H-benzimidazol-2-yl)methyl]-2-(4-methylpiperazin-1-yl)pyrazolo[1,5-a][1,3,5]triazin-4-amine]
> 20	> 20	CN1CC[C@H]2CN(c3nc(NCc4nc5ccccc5[nH]4)n4ncc(Br)c4n3)C[C@H]21 [Example 179, N-[(1H-benzimidazol-2-yl)methyl]-8-bromo-2-[(3aS,6aS)-1-methylhexahydropyrrolo[3,4-b]pyrrol-5 (1H)-yl]pyrazolo[1,5-a][1,3,5]triazin-4-amine]
> 20	7.35	CN(CCO)c1nc(NCc2nc3ccccc3[nH]2)n2ncc(Br)c2n1 [Example 237, 2-[(4-{[(1H-benzimidazol-2-yl)methyl]amino}-8-bromopyrazolo[1,5-a][1,3,5]triazin-2-yl)(methyl)amino]ethan-1-ol]
> 20	0.581	Fc1cccc2[nH]c(CNc3nc(N4CCOCC4)nc4c(C5CC5)cnn34)nc12 [Example 188, 8-cyclopropyl-N-[(4-fluoro-1H-benzimidazol-2-yl)methyl]-2-(morpholin-4-yl)pyrazolo[1,5-a][1,3,5]triazin-4-amine]
> 20	> 20	Fc1ccc2[nH]c(CNc3nc(N4C[C@@H]5C[C@H]4CO5)nc4c(C5CC5)cnn34)nc2c1F [Example 173, 8-cyclopropyl-N-[(4,5-difluoro-1H-benzimidazol-2-yl)methyl]-2-[(1S,4S)-2-oxa-5-azabicyclo[2.2.1]heptan-5-yl]pyrazolo[1,5-a][1,3,5]triazin-4-amine]
> 20	4.33	OC1(C(F)(F)F)CCN(c2nc(NCc3nc4ccccc4[nH]3)n3ncc(Br)c3n2)C1 (centres unmarked) [Example 200, 1-[4-(1H-benzimidazol-2-ylmethylamino)-8-bromo-pyrazolo[1,5-a][1,3,5]triazin-2-yl]-3-(trifluoromethyl)pyrrolidin-3-ol]
